This note sets out measurements from PubChem BioAssay (NCI).

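Assay format: 96-well plates, 48-hour exposure. TGI: total growth inhibition.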

Some test systems named below: HL-60(TB) leukemia; KM12 colon; SK-OV-3 ovarian; OVCAR-8 ovarian; 786-0 renal; SF-268 CNS; SK-MEL-28 melanoma; HCT-15 colon; M14 melanoma; DU-145 prostate.
Common to all, as to experiment: NCI tumour cell line growth inhibition, 48 h

With `C/C(=C/CO[Si](C)(C)C(C)(C)C)C(=O)N(C)c1ccccc1I`, the TGI came out at 32 µM in the assay on HL-60(TB) leukemia; 33.6 µM in the assay on KM12 colon; 35.5 µM with SK-OV-3 ovarian; 32.2 µM with OVCAR-8 ovarian; 31.7 µM in the assay on 786-0 renal; 33.4 µM in the assay with SF-268 CNS. Also, the TGI in the assay on SK-MEL-28 melanoma stood at 35.7 µM; with HCT-15 colon, 34.5 µM; in the assay with M14 melanoma, 28.6 µM; in the assay on DU-145 prostate, 36.7 µM.

For the compound `O=C(N/N=C\c1cccc2ccccc12)Nc1ccc([N+](=O)[O-])cc1`, the TGI in the assay on HL-60(TB) leukemia was more than 100 µM; with KM12 colon, more than 100 µM; in the assay on SK-OV-3 ovarian, 97.2 µM; with OVCAR-8 ovarian it was more than 53.5 µM; in the assay on 786-0 renal, more than 37.8 µM; in the assay on SF-268 CNS it was more than 88.9 µM. In addition, the TGI in the assay with SK-MEL-28 melanoma is more than 100 µM; in the assay on HCT-15 colon, more than 100 µM; in the assay on M14 melanoma it was more than 100 µM; in the assay on DU-145 prostate, more than 60.7 µM.

Turning to `O=[N+]([O-])c1cccc([N+](=O)[O-])c1S(=O)(=O)c1ccccc1`, the TGI in the assay on HL-60(TB) leukemia stood at 7.48 µM; in the assay on KM12 colon it was 32 µM; with SK-OV-3 ovarian, 31.2 µM; in the assay on OVCAR-8 ovarian it was 6.21 µM; with 786-0 renal, 5.21 µM; in the assay with SF-268 CNS it was 29 µM. Further, the TGI in the assay on SK-MEL-28 melanoma turned out to be 15.2 µM; in the assay on HCT-15 colon, 4.1 µM; with M14 melanoma, 6.59 µM; with DU-145 prostate, 20 µM.

With `Cc1cc2ccccc2n1CC(=O)NCC(C)C`, the TGI in the assay on HL-60(TB) leukemia, in the assay on KM12 colon, in the assay on SK-OV-3 ovarian, with OVCAR-8 ovarian, with 786-0 renal and in the assay on SF-268 CNS was more than 100 µM each time. Also, the TGI in the assay with SK-MEL-28 melanoma, in the assay on HCT-15 colon, in the assay on M14 melanoma and in the assay on DU-145 prostate was more than 100 µM throughout.

On to `N#CCCC1C(C#N)C2CC1C1C3C=CC(C3)C21` (stereo not drawn), for which the TGI in the assay with HL-60(TB) leukemia, in the assay with KM12 colon, in the assay on SK-OV-3 ovarian, in the assay with OVCAR-8 ovarian, in the assay on 786-0 renal and in the assay on SF-268 CNS was more than 100 µM each time. In addition, the TGI in the assay with SK-MEL-28 melanoma, in the assay with HCT-15 colon, in the assay with M14 melanoma and in the assay with DU-145 prostate was more than 100 µM throughout.

As to `Cc1ccc2nc3c(C)c(Cl)c(=O)cc-3sc2c1`, the TGI is 26.7 µM with HL-60(TB) leukemia; 74.1 µM in the assay with KM12 colon; more than 100 µM in the assay with SK-OV-3 ovarian; more than 100 µM in the assay on OVCAR-8 ovarian; more than 100 µM in the assay on 786-0 renal; more than 100 µM in the assay with SF-268 CNS. In addition, the TGI in the assay on SK-MEL-28 melanoma was 99.2 µM; with HCT-15 colon it was more than 100 µM; in the assay on M14 melanoma it was 36.4 µM; in the assay with DU-145 prostate it was more than 100 µM.

Turning to `O=C(CC(O)(C(F)(F)F)C(F)(F)F)C(CCCl)C(O)(C(F)(F)F)C(F)(F)F` (stereo not drawn), the TGI was 86.5 µM in the assay on HL-60(TB) leukemia; more than 100 µM in the assay on KM12 colon; more than 100 µM in the assay with SK-OV-3 ovarian; 83.9 µM with OVCAR-8 ovarian; more than 100 µM with 786-0 renal; more than 100 µM in the assay on SF-268 CNS. Moreover, the TGI with SK-MEL-28 melanoma, in the assay with HCT-15 colon, in the assay with M14 melanoma and with DU-145 prostate was more than 100 µM in each case.

In the case of `CN(CCc1ccc(Cl)c(Cl)c1)[C@H]1CCCC[C@H]1N1CCCC1`, the TGI in the assay with HL-60(TB) leukemia, with KM12 colon, in the assay on SK-OV-3 ovarian, in the assay with OVCAR-8 ovarian, in the assay on 786-0 renal and in the assay on SF-268 CNS was more than 100 µM each time. The TGI in the assay with SK-MEL-28 melanoma, with HCT-15 colon, in the assay with M14 melanoma and in the assay on DU-145 prostate was more than 100 µM each time.

Consider `CC(=O)N(CN1C(=O)CCC1C(=O)O)c1ccccc1` (stereo not drawn), for which the TGI with HL-60(TB) leukemia, in the assay on KM12 colon, in the assay with SK-OV-3 ovarian, in the assay with OVCAR-8 ovarian, with 786-0 renal and with SF-268 CNS was more than 100 µM each time. The TGI with SK-MEL-28 melanoma, in the assay with HCT-15 colon, in the assay on M14 melanoma and in the assay with DU-145 prostate was more than 100 µM in each case.

Regarding `Nc1nc(Cl)cc(N=Nc2ccccc2)n1`, the TGI in the assay on HL-60(TB) leukemia was 75 µM; in the assay on KM12 colon, more than 100 µM; in the assay with SK-OV-3 ovarian, more than 100 µM; in the assay on OVCAR-8 ovarian it was 97.6 µM; in the assay on 786-0 renal, more than 100 µM; with SF-268 CNS it was more than 100 µM. Moreover, the TGI in the assay with SK-MEL-28 melanoma was more than 100 µM; in the assay on HCT-15 colon, 35 µM; with M14 melanoma it was more than 100 µM; with DU-145 prostate it was more than 100 µM.

In the case of `Clc1nc(-[n+]2ccc(-c3ccncc3)cc2)nc(Nc2ccccc2)c1Cl`, the TGI with HL-60(TB) leukemia, in the assay with KM12 colon, in the assay with SK-OV-3 ovarian, in the assay with 786-0 renal, in the assay on SF-268 CNS and in the assay with SK-MEL-28 melanoma was more than 100 µM each time. The TGI in the assay with HCT-15 colon, in the assay on M14 melanoma and in the assay with DU-145 prostate was more than 100 µM in each case.

For `O=C(Nn1c(-c2ccccc2)nc2ccccc2c1=O)c1ccccn1`, the TGI in the assay with HL-60(TB) leukemia, in the assay on KM12 colon, with SK-OV-3 ovarian, in the assay with OVCAR-8 ovarian, in the assay with 786-0 renal and in the assay on SF-268 CNS was more than 100 µM throughout. For the same compound, the TGI in the assay on SK-MEL-28 melanoma, in the assay with M14 melanoma and in the assay with DU-145 prostate was more than 100 µM in each case.

As to `CC(=O)O[C@H]1C#C/C=C\C#CC[C@@H]2C(=O)N(C(=O)OC(C)(C)C)[C@@H]12`, the TGI with HL-60(TB) leukemia was 25.6 µM; in the assay on KM12 colon it was more than 86.7 µM; in the assay with SK-OV-3 ovarian it was more than 100 µM; in the assay on OVCAR-8 ovarian, more than 82.3 µM; in the assay on 786-0 renal, 51.7 µM; in the assay on SF-268 CNS it was more than 75.2 µM. In addition, the TGI in the assay with SK-MEL-28 melanoma was more than 100 µM; in the assay with HCT-15 colon it was 51.4 µM; in the assay on M14 melanoma, more than 100 µM; with DU-145 prostate, 54.8 µM.
